Data as given in patent US20080113956A1, “Substituted Porphyrins” (priority 1997, published 2008).
pIC50: −log10 of the molar value. Read-outs that look alike come from different tables or passages of the source.

Legend:
[1] = SOD-like activity in vitro (xanthine/xanthine oxidase, ferricytochrome c; McCord and Fridovich); format: biochemical; conditions: for rate of dismutation (kcat): Example VII
Protocol: (§1) SOD activity can be monitored in the presence and absence of EDTA using the method of McCord and Fridovich (J. Biol. Chem. 244:6049 (1969)). The efficacy of a mimetic can also be determined by measuring the effect of the mimetic on the aerobic growth of a SOD null E. coli strain versus a parental strain lacking the specific mutations. Specifically, parental E. coli (AB1157) and SOD null E. coli. (JI132) can be grown in M9 medium containing 0.2% casamino acids and 0.2% glucose at pH 7.0 and 37° C.; growth can be monitored in terms of turbidity followed at 700 nm.
The superoxide dismutase activity of the mimetics of the invention depends on a number of factors, including thermodynamic factors (eg the metal-centered redox-potential see FIG. 1)), and kinetic factors (eg electrostatic facilitation).
Superoxide dismuting activity. The SOD-like activities were measured using the xanthine/xanthine oxidase system as a source of O2^− and ferricytochrome c as its indicating scavenger (McCord et al, J. Biol. Chem. 244:6049 (1969)). O2— was produced at the rate of 1.2 μM per minute and reduction of ferricytochrome c was followed at 550 nm. Assays were conducted in presence of 0.1 mM EDTA in 0.05 M phosphate buffer (pH 7.8). Rate constants for the reaction of the compounds were based upon competition with […] cytochrome c, kcyt c=2.6×10^5 M^−1s^−1 (Butler et al, J. Biol. Chem. 257:10747 (1982)). All measurements were done at 25° C. Cytochrome c concentration was at least 10^3-fold higher than the concentrations of the SOD mimics and the rates were linear for at least two minutes, during which the compounds intercepted ˜100 equivalents of O2^−, thus confirming the catalytic nature of O2^− dismutation in presence of the mimics.
Superoxide dismuting activities. SOD-like activities were measured as described previously, based on competition with cytochrome c (McCord et al, J. Biol. Chem. 244:6049 (1969)). MnClxTE-2-PyP^5+ SOD-like activities are reported in Table 5, IC50 (M) representing the concentration for one unit of activity (or the concentration that causes 50% inhibition of cytochrome c reduction by O2^−) and kcat (M^−1s^−1) representing the rate constant for the superoxide dismutation reaction. The SOD-like activity per mole of MnCl4TE-2-PyP^5 is approximately 2-, 7- and 100-fold higher than MnOBTMPyP^4+, MnTM-2-PyP^5+ and MnTM-4PyP^5+, respectively (Faulkner et al, J. Biol. Chem. 269:23471 (1994); Batinic-Haberle et al, Arch. Biochem. Biophys. 343:225 (1997); Batinic-Haberle et al, J. Biol. Chem. 273:24521 (1998)). The SOD-like activity of MnCl4TE-2-PyP^5+ represents 20% of the activity of the Cu,Zn-SOD enzyme on a molar basis (40% per active site considering that the enzyme has two active sites) (Klug-Roth et al, J. Am. Chem. Soc. 95:2786 (1973)).

[2] = Electrochemistry: metal-centered redox potential; format: physicochemical; conditions: for Redox Potential (E1/2): metal centered, pH 7.8 if not otherwise specified; for redox potential: text of Example VIII, unit not given
Protocol: Electrochemistry. The electrochemical characterization was performed as described previously on a Voltammetric Analyzer Model 600 (CH instrument) using a glassy carbon electrode (Ag/AgCl reference and Pt auxiliary electrodes), at 0.5 mM porphyrin, pH 7.8 (0.05 M phosphate buffer), 0.1 M NaCl. The potentials were standardized against potassium ferricyanide/potassium ferrocyanide couple (Batinic-Haberle et al, Arch. Biochem. Biophys. 343:225 (1997); Kolthof et al, J. Phys. Chem. 39:945 (1974)).
Electrochemistry. The metal-centered redox behavior of all metalloporphyrin products was reversible. The half-wave potentials (E^O1/2) were calculated as the average of the cathodic and anodic peaks and are given in mV vs NHE (Table 5). The average shift per chlorine is +55 mV (Table 5), which is in agreement with the values previously reported for H2TPP derivatives (between −50 and +70 mV) (Sen et al, Chem. Soc. Faraday Trans. 93:4281 (1997); Autret et al. J. Chem. Soc. Dalton Trans. 2793 (1996); Hariprasad et al, J. Chem. Soc. Dalton Trans. 3429 (1996); Tagliatesta et al, Inorg. Chem. 35:5570 (1996); Ghosh, J. Am. Chem. Soc. 117:4691 (1995); Takeuchi et al, J. Am. Chem. Soc. 116:9730 (1994); Binstead et al, Inorg. Chem. 30:1259 (1991); Giraudeau et al, J. Am. Chem. Soc. 101:3857 (1979)). This shift appears to be higher (˜+65 mV) between 0 and 1, and between 2 and 3 chlorines (Table 5). […] The manganese redox state of MnCl4TE-2-PyP^5 (E^O1/2=+448 mV) and MnOBTMPyP^4+ (E^O1.2=+480 mV) is 3+ and 2+, respectively. This difference may be explained by their difference in terms of redox potential (˜30 mV) but also by structural considerations, for instance an increased distortion of the porphyrin ring in the case of MnOBTMPyP^4+. (Batinic-Haberle et al, Arch. Biochem. Biophys. 343:225 (1997); Ochsenbein et al, Angew. Chem. Int. Ed. Engl. 33:348 (1994)).

SOD null E. coli (JI132) = assay: Aerobic growth of SOD null E. coli strain versus parental strain; format: cell-based; conditions: for aerobic growth (A700) of SOD null E. coli cells: 20 μM, glucose minimal medium (M9) plus 5 essential amino acids, JI132
Protocol: FIG. 3. SOD activity in vivo (E. coli) of 1, 2, 3* and 4* (20 μM) in minimal medium (mixture of atropoisomers, JI=SOD deficient strain, AB parental strain).
as §1
The activity in vivo of the mimetics of the invention can be tested on an E. coli strain deleted of the genes coding for both the MnSOD and FeSOD. In this assay, the efficacy of a mimetic is determined by measuring the effect of the mimetic on the aerobic growth of a SOD null E. coli strain versus a parental strain. Specifically, parental E. coli (AB1157) and SOD null E. coli. (JI132) are grown in M9 medium containing 0.2% casamino acids and 0.2% glucose at pH 7.0 and 37° C.; growth is monitored in terms of turbidity followed at 700 nm.

[3] = literature comparators, cited from earlier work
[4] = vs NHE, literature comparators, cited from earlier work

Compound	kcat rate constant for the superoxide dismutation reaction ([1]; 0.1 mM EDTA, 0.05 M phosphate buffer pH 7.8, 25° C.)	pIC50 ([1]; 0.1 mM EDTA, 0.05 M phosphate buffer pH 7.8, 25° C., read-out: IC50 concentration that causes 50% inhibition of cytochrome c reduction by O2^−)	E°1/2 half-wave potential ([2]; vs NHE, 0.5 mM porphyrin, 0.1 M NaCl, 0.05 M phosphate buffer (pH 7.8))	aerobic growth (A700) of SOD null E. coli cells (SOD null E. coli (JI132))	rate of dismutation (kcat) [1] [M⁻¹ s⁻¹]	SOD activity in vitro relative to the para compound 1 ([1]; in vitro enzymatic assay)	kcat of comparison compounds ([3]; listed as MnTM-2-PyP^3−)	Redox Potential (E1/2) ([2]; vs NHE)	redox potential [2]	E°1/2 half-wave potential of comparison compounds ([4]; listed as MnTM-2-PyP^3−)	aerobic growth (A700) of SOD null E. coli cells (SOD null E. coli (JI132); listed as 3)	toxicity in vivo (E. coli) (SOD null E. coli (JI132); FIG. 3)	kcat of comparison compounds [3]	E1/2 one-electron metal-centered redox-potential ([2]; vs NHE, listed as 1)	half-wave potential (E1/2) ([2]; vs normal hydrogen electrode (NHE), Example VII)	E°1/2 half-wave potential of comparison compounds [4]	E°1/2 half-wave potential of comparison compounds ([4]; listed as MnTM-4-PyP^5−)	aerobic growth (A700) of SOD null E. coli cells (SOD null E. coli (JI132); listed as 1)	growth of SOD-deficient Escherichia coli (SOD null E. coli (JI132); Example VII)
CC[n+]1ccccc1-c1c2nc(c(-c3cccc[n+]3CC)c3ccc([n-]3)c(-c3cccc[n+]3CC)c3nc(c(-c4cccc[n+]4CC)c4ccc1[n-]4)C=C3)C=C2.[Mn+3] [MnTE-2-PyP^5+, manganic meso-tetrakis-(N-ethylpyridinium-2-yl)porphyrin]	5.7 10^7 M^−1 s^−1	7.35	+228 mV	increase in A700	–	–	–	–	–	–	–	–	–	–	–	–	–	–	–
manganese(III) 5,10,15,20-tetrakis(N-methylpyridyl)porphyrin [MnTM-2-PyP^5+]	–	–	–	–	6e+07	more than an order of magnitude more active	6.0 10^7 M^−1 s^−1	+0.22 V	+0.22	+220 mV	increase in A700	decreased toxicity	–	–	–	–	–	–	–
manganese(III) 5,10,15,20-tetrakis(N-methylpyridyl)porphyrin [MnTM-4-PyP^5+, reference compound]	–	–	–	–	3.8e+06	–	–	+0.06 V	+0.06	–	–	–	0.4 10^7 M^−1 s^−1	+0.060 V	+0.060 V	+60 mV	+060 mV	did not show an increase in A700	inhibited growth
